Earlier results in patent US20070116750A1, “Compositions for disrupting and inhibiting reconstitution of wound biofilm” (priority 2005, published 2007).

Test system: established biofilm
Settings: applied at full strength to an established biofilm

**Q.** Which biofilm killed does the source give for `OCl` [sodium hypochlorite] here?
**A.** The biofilm killed was 50%.
